Test results as given in the supplement of paper PMC10307832.

Columns and labels:
Experiment in all cases: relative viability (nuclei count vs DMSO), 5 days (fraction); higher = more cells survive
201T = system: 201T
Method in brief: (§1)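 Dosing by pin tool came one day after lung cancer cell lines were seeded in 1536-well plates, using either one drug or a fixed anchor-drug dose plus five library-drug doses (not always all listed) in √10 steps. After 5 days, nuclei were counted on 4× images. Relative viability is treated-well nuclei count divided by vehicle-well nuclei count, and values are medians of duplicate plates.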

BEN = system: BEN
Method in brief: as §1

CAL-12T = system: CAL-12T
Method in brief: as §1

COR-L 105 = system: COR-L 105
Method in brief: as §1

H3255 = system: H3255
Method in brief: as §1

HARA = system: HARA
Method in brief: as §1

HCC-15 = system: HCC-15
Method in brief: as §1

HCC-827 = system: HCC-827
Method in brief: as §1

LC-2-ad = system: LC-2-ad
Method in brief: as §1

LCLC-103H = system: LCLC-103H
Method in brief: as §1

LK-2 = system: LK-2
Method in brief: as §1

LU99A = system: LU99A
Method in brief: as §1

LXF-289 = system: LXF-289
Method in brief: as §1

NCI-H1437 = system: NCI-H1437
Method in brief: as §1

NCI-H1651 = system: NCI-H1651
Method in brief: as §1

NCI-H1792 = system: NCI-H1792
Method in brief: as §1

NCI-H2085 = system: NCI-H2085
Method in brief: as §1

NCI-H2228 = system: NCI-H2228
Method in brief: as §1

NCI-H23 = system: NCI-H23
Method in brief: as §1

NCI-H2405 = system: NCI-H2405
Method in brief: as §1

NCI-H322M = system: NCI-H322M
Method in brief: as §1

RERF-LC-KJ = system: RERF-LC-KJ
Method in brief: as §1

UMC-11 = system: UMC-11
Method in brief: as §1

Work on O=c1[nH]c2ccccc2n1C1CCN(CCCC(c2ccc(F)cc2)c2ccc(F)cc2)CC1 [Pimozide] + C[C@@H](Oc1cc(-c2cnn(C3CCNCC3)c2)cnc1N)c1c(Cl)ccc(F)c1Cl [Crizotinib] (partner 1 µM) yielded a relative viability (201T; first compound 0.08 µM) of 0.995, a relative viability (201T; first compound 0.253 µM) of 1 and a relative viability (201T; first compound 0.8 µM) of 1.03. For the same compound, the relative viability (201T; first compound 2.53 µM) was 1.05, the relative viability (201T; first compound 8 µM) was 0.964 and the relative viability (BEN; first compound 0.08 µM) was 1.01. For the same compound, the relative viability (BEN; first compound 0.253 µM) was 0.913, the relative viability (BEN; first compound 0.8 µM) was 0.846 and the relative viability (BEN; first compound 2.53 µM) was 0.697. For the same compound, the relative viability (BEN; first compound 8 µM) was 0.969, the relative viability (CAL-12T; first compound 0.08 µM) was 0.711 and the relative viability (CAL-12T; first compound 0.253 µM) was 0.644. It also gave a relative viability (CAL-12T; first compound 0.8 µM) of 0.557, a relative viability (CAL-12T; first compound 2.53 µM) of 0.469 and a relative viability (CAL-12T; first compound 8 µM) of 0.473. For the same compound, the relative viability (COR-L 105; first compound 0.253 µM) was 0.831, the relative viability (COR-L 105; first compound 0.8 µM) was 0.691 and the relative viability (COR-L 105; first compound 2.53 µM) was 0.645. It also gave a relative viability (COR-L 105; first compound 8 µM) of 0.555, a relative viability (H3255; first compound 0.253 µM) of 0.801 and a relative viability (H3255; first compound 0.8 µM) of 0.764. For the same compound, the relative viability (H3255; first compound 2.53 µM) was 0.983, the relative viability (H3255; first compound 8 µM) was 0.875 and the relative viability (HARA; first compound 0.08 µM) was 0.991. It also gave a relative viability (HARA; first compound 0.253 µM) of 1.07, a relative viability (HARA; first compound 0.8 µM) of 1.01 and a relative viability (HARA; first compound 2.53 µM) of 0.927. It also gave a relative viability (HARA; first compound 8 µM) of 0.961, a relative viability (HCC-15; first compound 0.08 µM) of 0.835 and a relative viability (HCC-15; first compound 0.253 µM) of 0.771. The relative viability (HCC-15; first compound 0.8 µM) was 0.724, the relative viability (HCC-15; first compound 2.53 µM) was 0.761 and the relative viability (HCC-15; first compound 8 µM) was 0.797. The relative viability (HCC-827; first compound 0.253 µM) was 0.887, the relative viability (HCC-827; first compound 0.8 µM) was 0.826 and the relative viability (HCC-827; first compound 2.53 µM) was 0.936. It also gave a relative viability (HCC-827; first compound 8 µM) of 0.885, a relative viability (LC-2-ad; first compound 0.08 µM) of 0.474 and a relative viability (LC-2-ad; first compound 0.253 µM) of 0.441. The relative viability (LC-2-ad; first compound 0.8 µM) was 0.403, the relative viability (LC-2-ad; first compound 2.53 µM) was 0.466 and the relative viability (LC-2-ad; first compound 8 µM) was 0.479. The relative viability (LCLC-103H; first compound 0.08 µM) was 1, the relative viability (LCLC-103H; first compound 0.253 µM) was 0.967 and the relative viability (LCLC-103H; first compound 0.8 µM) was 1.02. The relative viability (LCLC-103H; first compound 2.53 µM) was 1.07, the relative viability (LCLC-103H; first compound 8 µM) was 1.12 and the relative viability (LK-2; first compound 0.08 µM) was 0.225. It also gave a relative viability (LK-2; first compound 0.253 µM) of 0.224, a relative viability (LK-2; first compound 0.8 µM) of 0.243 and a relative viability (LK-2; first compound 2.53 µM) of 0.225. It also gave a relative viability (LK-2; first compound 8 µM) of 0.234, a relative viability (LU99A; first compound 0.08 µM) of 0.497 and a relative viability (LU99A; first compound 0.253 µM) of 0.521. It also gave a relative viability (LU99A; first compound 0.8 µM) of 0.548, a relative viability (LU99A; first compound 2.53 µM) of 0.612 and a relative viability (LU99A; first compound 8 µM) of 0.61. It also gave a relative viability (LXF-289; first compound 0.08 µM) of 0.791, a relative viability (LXF-289; first compound 0.253 µM) of 0.775 and a relative viability (LXF-289; first compound 0.8 µM) of 0.79. For the same compound, the relative viability (LXF-289; first compound 2.53 µM) was 0.774, the relative viability (LXF-289; first compound 8 µM) was 0.709 and the relative viability (NCI-H1437; first compound 0.08 µM) was 0.949. For the same compound, the relative viability (NCI-H1437; first compound 0.253 µM) was 0.878, the relative viability (NCI-H1437; first compound 0.8 µM) was 0.898 and the relative viability (NCI-H1437; first compound 2.53 µM) was 0.903. It also gave a relative viability (NCI-H1437; first compound 8 µM) of 0.751, a relative viability (NCI-H1651; first compound 0.08 µM) of 0.801 and a relative viability (NCI-H1651; first compound 0.8 µM) of 0.818. The relative viability (NCI-H1651; first compound 2.53 µM) was 0.764, the relative viability (NCI-H1651; first compound 8 µM) was 0.933 and the relative viability (NCI-H1792; first compound 0.08 µM) was 0.95. It also gave a relative viability (NCI-H1792; first compound 0.253 µM) of 0.944, a relative viability (NCI-H1792; first compound 0.8 µM) of 0.937 and a relative viability (NCI-H1792; first compound 2.53 µM) of 0.937. It also gave a relative viability (NCI-H1792; first compound 8 µM) of 0.971, a relative viability (NCI-H2085; first compound 0.08 µM) of 0.897 and a relative viability (NCI-H2085; first compound 0.253 µM) of 0.792. For the same compound, the relative viability (NCI-H2085; first compound 0.8 µM) was 0.772, the relative viability (NCI-H2085; first compound 2.53 µM) was 0.712 and the relative viability (NCI-H2085; first compound 8 µM) was 0.775. The relative viability (NCI-H2228; first compound 0.08 µM) was 0.406, the relative viability (NCI-H2228; first compound 0.253 µM) was 0.572 and the relative viability (NCI-H2228; first compound 0.8 µM) was 0.406. For the same compound, the relative viability (NCI-H2228; first compound 2.53 µM) was 0.38, the relative viability (NCI-H2228; first compound 8 µM) was 0.354 and the relative viability (NCI-H23; first compound 0.08 µM) was 0.625. It also gave a relative viability (NCI-H23; first compound 0.253 µM) of 0.482, a relative viability (NCI-H23; first compound 0.8 µM) of 0.517 and a relative viability (NCI-H23; first compound 2.53 µM) of 0.573. The relative viability (NCI-H23; first compound 8 µM) was 0.524, the relative viability (NCI-H2405; first compound 0.08 µM) was 0.831 and the relative viability (NCI-H2405; first compound 0.253 µM) was 0.814. For the same compound, the relative viability (NCI-H2405; first compound 0.8 µM) was 0.83, the relative viability (NCI-H2405; first compound 2.53 µM) was 0.819 and the relative viability (NCI-H2405; first compound 8 µM) was 0.789. For the same compound, the relative viability (NCI-H322M; first compound 0.253 µM) was 0.805, the relative viability (NCI-H322M; first compound 0.8 µM) was 0.846 and the relative viability (NCI-H322M; first compound 2.53 µM) was 0.832. For the same compound, the relative viability (NCI-H322M; first compound 8 µM) was 0.943, the relative viability (RERF-LC-KJ; first compound 0.08 µM) was 0.809 and the relative viability (RERF-LC-KJ; first compound 0.253 µM) was 0.815. It also gave a relative viability (RERF-LC-KJ; first compound 0.8 µM) of 0.764, a relative viability (RERF-LC-KJ; first compound 2.53 µM) of 0.581 and a relative viability (RERF-LC-KJ; first compound 8 µM) of 0.705. The relative viability (UMC-11; first compound 0.08 µM) was 0.574, the relative viability (UMC-11; first compound 0.253 µM) was 0.618 and the relative viability (UMC-11; first compound 0.8 µM) was 0.634. The relative viability (UMC-11; first compound 2.53 µM) was 0.584 and the relative viability (UMC-11; first compound 8 µM) was 0.705.
